In patent US9956319B2, “Compositions useful as antibiofilm or antimicrobial agents and methods using same” (BAYLOR COLLEGE OF MEDICINE, priority 2012, dated 2018):

Key:
Type in all cases: cell-based
common pathogens [1] = assay: Antimicrobial activity of impregnated catheters, overall conclusion from Tables 1-8; details: conclusion in words from Tables 1-8
common pathogens [2] = assay: Anticolonization activity of impregnated central venous catheters, overall result in words; details: result in words summarising the culture results
Description: Catheter segments were then placed in the impregnating solution at 55° C. with agitation for 1 hour in the dark. Catheter segments were then removed from the solution and dried under a fume hood overnight in the dark. Catheter segments were rinsed with deionized water the next day and let dry for another 18 hours in the dark. After the impregnation process and drying, one-centimeter segments of impregnated catheters were individually placed in 1 ml of 10^5 cfu/ml suspensions of methicillin-sensitive Staphylococcus epidermidis (MSSE), methicillin-resistant Staphylococcus epidermidis (MRSE), methicillin-resistant Staphylococcus aureus (MRSA), Klebsiella pneumoniae, Escherichia coli, or Proteus mirabilis in trypticase soy broth (TSB) at 37° C. for 24 hours. One-centimeter segments of non-impregnated catheters were also incubated individually in each bacterial suspension at 37° C. for 24 hours as controls. Catheter segments were removed from each bacterial suspension after this period, shaken to remove excess broth containing free-floating bacteria from their surfaces, placed in 1 ml of normal saline, sonicated for 5 minutes, and vortexed for 30 seconds.
Aliquots of each suspension and subsequent dilutions were cultured quantitatively.
To evaluate the anticolonization/antimicrobial activity of central venous catheters treated with lipoamide, segments of 7 French triple lumen polyurethane central venous catheters were impregnated with lipoamide using the same patented method described in Example 1 (U.S. Pat. No. 6,589,591) with 100 mg/ml (final solution volume) of the agent. After the impregnation process and drying, Catheter segments were then placed in the impregnating solution at 55° C. with agitation for 1 hour in the dark. Catheter segments were then removed from the solution and dried under a fume hood overnight in the dark. Catheter segments were rinsed with deionized water the next day and let dry for another 18 hours in the dark. […]

Escherichia coli = assay: Zones of inhibition of impregnated catheter segments, modified Kirby-Bauer method
Description: (§1) To evaluate the antimicrobial activity of central venous catheters treated with α-lipoic acid or its combination with gentamicin, segments of 7 French triple lumen polyurethane central venous catheters were impregnated with α-lipoic acid, gentamicin, or the combination of lipoic acid and gentamicin using the same patented method described in Example 1 with 50 mg/ml of each agent (for the final solution volume). After the impregnation process and drying, zones of inhibition were performed on one-centimeter segments according to a modified Kirby-Bauer method against MSSE, MRSE, MRSA, K. pneumoniae, E. coli, P. mirabilis, Pseudomonas aeruginosa, and Candida albicans. Each segment was half embedded in the center of a Muller-Hinton agar plate that had been previously inoculated with an individual organism. Prior to placing the catheter segments in agar, each organism was grown for 18 hours in TSB to a concentration of 0.5 McFarland (10^8 cfu/ml). A cotton swab was placed in the suspension and streaked across the surface of the Muller-Hinton agar plate to cover the entire plate. All plates were placed in a 37° C. incubator for 24 hours. Zones were measured in mm after the incubation period (Table 2).
(§2) To evaluate the antimicrobial activity of central venous catheters treated with α-lipoic acid or its combination with doxycycline, segments of 7 French triple lumen polyurethane central venous catheters were impregnated with doxycycline or the combinations of α-lipoic acid and doxycycline using the same patented method described in Example 1 (U.S. Pat. No. 6,589,591) with 50 mg/ml of each agent (for the final solution volume). After the impregnation process and drying, zones of inhibition were performed on one-centimeter segments according to a modified Kirby-Bauer method against MSSE, MRSE, MRSA, K. pneumoniae, E. coli, P. aeruginosa, P. mirabilis, and C. albicans as described in Example 2. Zones of inhibition were measured in mm after the incubation period (Table 3).
(§3) To evaluate the antimicrobial activity of central venous catheters treated with lipoamide or its combination with levofloxacin, segments of 7 French triple lumen polyurethane central venous catheters were impregnated with levofloxacin or the combinations of lipoamide and levofloxacin using the same patented method described in Example 1 (U.S. Pat. No. 6,589,591) with 100 mg/ml (final solution volume) of each agent. After the impregnation process and drying, zones of inhibition were performed on one-centimeter segments according to a modified Kirby-Bauer method against MSSE, MRSE, MRSA, vancomycin-resistant Enterococcus (VRE), K. pneumoniae, E. coli, P. aeruginosa, P. mirabilis, and C. albicans as described in Example 2. Zones of inhibition were measured in mm after the incubation period (Table 4).
as §3, with “doxycycline,” for “levofloxacin,”, “doxycycline” for “levofloxacin”, “5).” for “4).”
(§4) To evaluate the antimicrobial activity of central venous catheters treated with dihydrolipoic acid, segments of 7 French triple lumen polyurethane central venous catheters were impregnated with dihydrolipoic acid using the same patented method described in Example 1 (U.S. Pat. No. 6,589,591) with 25 mg/ml (final solution volume) of the agent. […]

Pseudomonas aeruginosa = assay: as above
Description: as §1, §2, §3
as §3, with “doxycycline,” for “levofloxacin,”, “doxycycline” for “levofloxacin”, “5).” for “4).”
as §4

Proteus mirabilis = assay: as above
Description: as §1, §2, §3
as §3, with “doxycycline,” for “levofloxacin,”, “doxycycline” for “levofloxacin”, “5).” for “4).”
as §4

[3] = catheter impregnated with 25 mg/ml of the agent
[4] = catheter impregnated with 100 mg/ml of each agent
[5] = catheter impregnated with 50 mg/ml of each agent, 37° C., 24 hours

SMILES	intrinsic antimicrobial activity (common pathogens [1])	bacterial cells adhered to treated catheter segments compared to control uncoated catheter segments (common pathogens [2])	Zones of inhibition (Escherichia coli; [3]) [mm]	Zones of inhibition (Pseudomonas aeruginosa; Pseudomonas aeroginosa, catheter impregnated with 25 mg/ml of the agent) [mm]	Zones of inhibition (Proteus mirabilis; [3]) [mm]	zone of inhibition at 100000 µg/mL (Escherichia coli; [4]) [mm]	zone of inhibition at 100000 µg/mL (Pseudomonas aeruginosa; Pseudomonas aeruginosa, Pseudomonas aeroginosa, catheter impregnated with 100 mg/ml of each agent) [mm]	zone of inhibition at 100000 µg/mL (Proteus mirabilis; [4]) [mm]	zone of inhibition at 50000 µg/mL (Escherichia coli; [5]) [mm]	zone of inhibition at 50000 µg/mL (Pseudomonas aeruginosa; Pseudomonas aeruginosa, catheter impregnated with 50 mg/ml of each agent, 37° C., 24 hours) [mm]	zone of inhibition at 50000 µg/mL (Proteus mirabilis; [5]) [mm]
O=C(O)CCCCC(S)CCS (stereo not drawn) [Dihydrolipoic acid, 6,8-dimercaptooctanoic acid]	unexpected intrinsic antimicrobial activities	substantially fewer bacterial cells adhered to them	0	11	0	–	–	–	–	–	–
NC(=O)CCCCC1CCSS1 (stereo not drawn) [Lipoamide, lipoamide]	unexpected intrinsic antimicrobial activities	substantially fewer or no bacterial cells adhered to them	–	–	–	10	18	13	–	–	–
O=C(O)CCCCC1CCSS1 (stereo not drawn) [Lipoic acid, 1,2-dithiolane-3-pentanoic acid]	unexpected intrinsic antimicrobial activities	substantially fewer or no bacterial cells adhered to them	–	–	–	–	–	–	12	5	12
